This note sets out measurements from patent US20230348418A1, “ISOINDOLINONE COMPOUNDS” (Monte Rosa Therapeutics, Inc., priority 2021, published 2023).

Read-outs that look alike come from different tables or passages of the source.

One data set concerns the target T1, SALL4 (Homo sapiens, UniProt Q9UJQ4).
T1 construct: endogenous in cells
As to the kind of experiment: SALL4 degradation in treated cells (FIG. 1A). It counts as cell-based. Conditions: concentrations up to 30 µM.

Data set [1] has as its system NCI-H1155. As to the kind of experiment: viability of NSCLC cell line, high N-Myc (FIG. 2A). It counts as cell-based, human. The conditions noted are these: compared to low N-Myc EBC-1 and NCI-H2023. On the procedure: (§1) GSPT1 was degraded by compound 10 after six hours of treatment in high N-Myc NCI-H1155 and ABC-1 cells with a DC50 of 3 nM and 22 nM, respectively (x-axys represents […]M concentration of compound 10; y-axis represents the viability in %).

The test system of a further data set is ABC-1. As to the kind of experiment: viability of NSCLC cell line, high N-Myc (FIG. 2A). It counts as cell-based. Conditions: ABC-1, high N-Myc; compared to low N-Myc EBC-1 and NCI-H2023. The method, then:
as §1

Data set [2] has as its system NCI-H1155. As to the kind of experiment: N-Myc-driven mouse xenograft model, human cell line NCI-H1155 (FIG. 3A). It counts as in vivo.
Data set [3] addresses T2, Full length wild-type cereblon CRBN (Homo sapiens, UniProt Q96SW2).
T2 construct: Full length wild-type cereblon CRBN (80.0 nM, 10 μL) was incubated in assay buffer
As to the kind of experiment: Fluorescence polarization (FP) assay, cereblon binding. The method in brief: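 Full-length wild-type human CRBN (80.0 nM) was preincubated with compound for 30 min at room temperature in 20 mM HEPES pH 8.0, 150 NaCl, 0.5 mM TCEP and 0.05% Tween 20. A Cy5-type thalidomide-linked fluorescent probe was then added. The FP signal was normalized to the DMSO control to derive IC50.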
Background: In fluorescence polarisation assays a small probe gives low polarisation when free and higher when bound to something large.

Another data set has as its target GSPT1 (Homo sapiens, UniProt P15170+Q96SW2). In words: GSPT1 levels by western blotting/densitometry in NSCLC cell lines NCI-H1155 and ABC-1. It counts as cell-based. On the procedure:
The anti-proliferative activity of compound 10 was tested on representative N-Myc high and N-Myc low cell lines (NCI-H1155, ABC-1 and EBC-1, NCI-H2023, respectively) following treatment with compound for 72 hours. Cells were sub-cultures as recommended by the providers (ATCC, DSMZ) and incubated at 37° C., 5% CO2. All cells were authenticated and confirmed by Short Tandem Repeat (STR) profiling. Briefly, cells were seeded to the appropriate density to allow logarithmic growth over the assay period in 96-well opaque-walled clear bottom plates (from Corning, Cat. No. 3903, Lot. No. 16419061; 100 μL total volume) and incubated overnight. […] Cell viability was assessed using the CellTiter-Glo assay kit as recommended by the Manufacturer (Promega, Cat. No. G7558, Lot. No. 0000385738) and measurements performed on the EnSpire multimode plate reader (Perkin Elmer). EC50 values were determined using Prism8 (GraphPad) and the asymmetric (five-parameter) equation and least squares fit. GSPT1 levels were assessed in the NCI-H1155 and ABC-1 cell lines by densitometry analysis following treatment with compound 10 for 6 hours and western blotting analysis. […] For chemiluminescence and colorimetric signals “optimal automatic exposure” settings (3×3 binning) were employed while fluorescence was detected using 1-4 seconds exposure time to achieve best GAPDH signals and avoid overexposure. […]
(Immunoblotting shows a protein as a band on a membrane.)

Sequence of GSPT1 (P15170 whole entry): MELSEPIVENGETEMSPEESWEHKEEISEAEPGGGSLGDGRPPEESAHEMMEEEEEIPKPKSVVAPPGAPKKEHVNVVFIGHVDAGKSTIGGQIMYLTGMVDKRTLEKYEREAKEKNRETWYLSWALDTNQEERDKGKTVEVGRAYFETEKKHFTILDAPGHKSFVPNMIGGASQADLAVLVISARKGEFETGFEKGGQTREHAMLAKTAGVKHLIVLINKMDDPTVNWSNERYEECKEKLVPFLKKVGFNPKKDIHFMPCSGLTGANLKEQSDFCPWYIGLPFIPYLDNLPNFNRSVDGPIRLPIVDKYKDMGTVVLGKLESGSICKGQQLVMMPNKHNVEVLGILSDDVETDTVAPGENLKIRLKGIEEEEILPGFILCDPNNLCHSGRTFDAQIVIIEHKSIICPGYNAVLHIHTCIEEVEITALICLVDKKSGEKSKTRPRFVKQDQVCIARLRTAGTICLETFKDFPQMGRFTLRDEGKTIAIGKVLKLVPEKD
Sequence of GSPT1 (Q96SW2 whole entry): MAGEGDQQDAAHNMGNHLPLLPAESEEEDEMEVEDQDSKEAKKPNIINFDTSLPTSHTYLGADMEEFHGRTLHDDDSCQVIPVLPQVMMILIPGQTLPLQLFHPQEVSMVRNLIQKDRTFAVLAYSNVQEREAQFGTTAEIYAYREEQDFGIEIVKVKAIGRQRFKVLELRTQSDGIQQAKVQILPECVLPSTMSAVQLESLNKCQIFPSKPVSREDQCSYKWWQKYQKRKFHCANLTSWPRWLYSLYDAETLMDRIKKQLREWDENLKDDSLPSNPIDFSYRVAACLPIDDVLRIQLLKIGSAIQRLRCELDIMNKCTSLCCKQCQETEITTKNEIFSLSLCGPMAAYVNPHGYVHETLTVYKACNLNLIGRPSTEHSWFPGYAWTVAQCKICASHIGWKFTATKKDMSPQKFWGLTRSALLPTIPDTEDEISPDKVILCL
Sequence of GSPT1 (Q16531 2-1140 partner limits assumed): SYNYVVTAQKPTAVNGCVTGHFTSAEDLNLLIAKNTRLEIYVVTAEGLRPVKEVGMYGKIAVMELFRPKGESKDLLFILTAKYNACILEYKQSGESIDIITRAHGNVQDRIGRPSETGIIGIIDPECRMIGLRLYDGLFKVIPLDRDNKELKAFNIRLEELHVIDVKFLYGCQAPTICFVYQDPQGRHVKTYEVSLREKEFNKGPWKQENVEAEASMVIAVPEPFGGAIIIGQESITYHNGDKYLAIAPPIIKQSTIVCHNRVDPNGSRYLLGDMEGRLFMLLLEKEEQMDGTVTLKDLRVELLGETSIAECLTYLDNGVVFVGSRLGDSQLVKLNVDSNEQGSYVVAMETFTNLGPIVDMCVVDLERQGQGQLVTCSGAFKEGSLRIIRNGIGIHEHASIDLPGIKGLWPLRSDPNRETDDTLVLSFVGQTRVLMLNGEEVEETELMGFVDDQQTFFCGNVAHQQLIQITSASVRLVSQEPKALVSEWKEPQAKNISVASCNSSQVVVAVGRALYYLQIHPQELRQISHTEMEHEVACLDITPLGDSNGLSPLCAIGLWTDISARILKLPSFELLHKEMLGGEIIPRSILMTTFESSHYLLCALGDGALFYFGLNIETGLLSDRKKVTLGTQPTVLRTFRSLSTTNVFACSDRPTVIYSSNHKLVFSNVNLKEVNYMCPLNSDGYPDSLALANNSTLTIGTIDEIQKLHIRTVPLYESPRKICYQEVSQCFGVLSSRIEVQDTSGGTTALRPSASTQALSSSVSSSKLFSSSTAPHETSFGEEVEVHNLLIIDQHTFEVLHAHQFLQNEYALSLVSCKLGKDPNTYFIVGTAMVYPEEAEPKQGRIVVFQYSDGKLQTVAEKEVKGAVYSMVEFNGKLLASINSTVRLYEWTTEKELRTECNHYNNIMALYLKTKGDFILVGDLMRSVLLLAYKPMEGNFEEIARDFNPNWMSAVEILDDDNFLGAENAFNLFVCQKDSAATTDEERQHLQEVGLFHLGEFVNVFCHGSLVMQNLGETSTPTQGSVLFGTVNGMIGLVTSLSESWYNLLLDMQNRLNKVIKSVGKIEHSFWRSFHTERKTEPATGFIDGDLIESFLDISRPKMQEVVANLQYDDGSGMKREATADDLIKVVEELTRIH
T2 sequence (Q96SW2 whole entry): as the sequence (Q96SW2 whole entry) above
T1 sequence (Q96SW2 whole entry partner): as the sequence (Q96SW2 whole entry) above
T1 sequence (Q16531 2-1140 partner limits assumed): as the sequence (Q16531 2-1140 partner limits assumed) above
T1 sequence (Q9UJQ4 whole entry): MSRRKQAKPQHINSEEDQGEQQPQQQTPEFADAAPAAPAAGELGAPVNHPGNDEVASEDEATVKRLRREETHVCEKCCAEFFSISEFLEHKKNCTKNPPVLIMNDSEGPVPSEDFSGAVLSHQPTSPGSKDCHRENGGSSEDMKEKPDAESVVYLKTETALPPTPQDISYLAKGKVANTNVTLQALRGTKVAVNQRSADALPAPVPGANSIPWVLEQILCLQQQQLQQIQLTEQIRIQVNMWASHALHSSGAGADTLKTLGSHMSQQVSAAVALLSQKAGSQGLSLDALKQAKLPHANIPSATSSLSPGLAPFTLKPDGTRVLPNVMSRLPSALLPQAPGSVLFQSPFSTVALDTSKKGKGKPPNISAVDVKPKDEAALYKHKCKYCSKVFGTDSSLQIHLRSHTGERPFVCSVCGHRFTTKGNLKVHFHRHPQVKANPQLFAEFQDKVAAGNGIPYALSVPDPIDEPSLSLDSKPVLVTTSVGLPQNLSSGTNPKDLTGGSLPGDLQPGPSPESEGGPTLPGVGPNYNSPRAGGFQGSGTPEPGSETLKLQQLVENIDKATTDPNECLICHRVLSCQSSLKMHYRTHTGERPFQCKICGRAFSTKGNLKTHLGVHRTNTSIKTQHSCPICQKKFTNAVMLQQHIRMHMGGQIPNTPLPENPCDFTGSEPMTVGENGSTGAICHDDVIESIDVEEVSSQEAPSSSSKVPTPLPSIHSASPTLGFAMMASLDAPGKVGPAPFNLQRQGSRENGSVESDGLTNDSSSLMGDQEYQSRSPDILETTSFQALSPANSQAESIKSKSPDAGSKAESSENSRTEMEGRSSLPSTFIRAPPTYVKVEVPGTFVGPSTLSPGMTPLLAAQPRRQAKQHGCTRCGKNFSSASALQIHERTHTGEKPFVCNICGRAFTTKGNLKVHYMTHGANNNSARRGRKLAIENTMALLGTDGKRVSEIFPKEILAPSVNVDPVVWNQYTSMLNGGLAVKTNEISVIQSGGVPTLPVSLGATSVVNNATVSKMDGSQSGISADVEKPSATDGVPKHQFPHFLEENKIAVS

Take `Cc1ccc(NC(=O)OCc2ccc3c(c2)C(=O)N(C2CCC(=O)NC2=O)C3)cc1Cl` (stereo not drawn) [Compound 10]: the “degradation of SALL4” value on SALL4 was “no induction of degradation”. For the same molecule, the “sensitivity to treatment (viability in %)” value in the data set with NCI-H1155 [1] and in the data set with ABC-1 was “highly sensitive” in each case. In addition, the “tumor growth (tumor volume)” value is recorded as “tumor growth was suppressed for two weeks” in the data set with NCI-H1155 [2] (1 mg/kg once daily, PO) and “tumor growth inhibition” in the data set on NCI-H1155 [2] (oral administration, NCI-H1155 xenograft, overall). Further, the “tumor size (tumor volume)” value with NCI-H1155 [2] (3 mg/kg once daily, PO) was “tumor size decreased, became undetectable by day eight and remained so until the end of the study at day 21”; in the data set on NCI-H1155 [2] (6 mg/kg PO, five days on and nine days off) it was “tumor size decreased, became undetectable by day eight and remained so until the end of the study at day 21”. For the same molecule, the body weight result in the data set on NCI-H1155 [2] (oral administration, NCI-H1155 xenograft) is reported as “no body weight loss observed”. The IC50 in data set [3] (bounds stated in the text lists b2059-b2061, read-out: IC50 value) is under 1.7 µM; in data set [3] (cereblon binding, class code, read-out: rFP IC50), 1.1 to 1.7 µM. Besides, the “Concentration dependence of GSPT1 degradation (FIG. 2B)” value at GSPT1 (NCI-H1155 and ABC-1 cells) is “Degradation took place in a concentration dependent manner”. For the same molecule, on GSPT1 (high N-Myc NCI-H1155 and ABC-1 cells, six hours of treatment), the “extent of GSPT1 degradation” value is “Complete degradation of GSPT1”.

The IC50 is the point on the concentration scale where inhibition reaches its midpoint.
